Laboratory results reported in patent publication US20240360177A1, “PEPTIDES WITH ANTIMICROBIAL ACTIVITIES” (priority 2021, published 2024).
≈ marks a conversion by molar mass, not a printed value. Like-named read-outs stand apart in the source and are kept apart here. Non-standard residues stand in square brackets, D forms with d. Residues, ends and D or L forms follow the SMILES beside them. βAla = NCCC(=O)O

What was measured:
[1] = test system: C. parapsilosis; conditions: 24 h
[2] = test system: C. krusei; conditions: 24 h
[3] = test system: C. albicans; conditions: 24 h
[4] = test system: C. auris; conditions: 24 h
[5] = test system: C. tropicalis; conditions: 24 h
[6] = test system: C. glabrata; conditions: 24 h
[7] = in vitro; conditions: human, EC50 cytotoxicity in HepG2, intracellular ATP assay
[8] = test system: Candida spp.
[9] = test system: C. dubliniensis; conditions: 24 h
[10] = test system: Pseudomonas aeruginosa ATCC 27853; type: cell-based
[11] = test system: Fusarium spp.; conditions: 48 h
[12] = test system: Staphylococcus aureus ATCC 29213; type: cell-based
[13] = test system: Escherichia coli ATCC 25922; type: cell-based
[14] = test system: C. neoformans; conditions: 72 h
[15] = test system: C. gattii; conditions: 72 h
[16] = test system: Scedosporium spp.; conditions: 72 h
[17] = Acute toxicity in CD-1 mice; conditions: both sexes, mouse, in vivo
Procedure: Acute toxicity and subacute toxicity of ACPs were tested in CD-1 mice. In the acute toxicity study, groups of CD-1 male or female mice were administered single intravenous or intraperitoneal escalating doses (n=2-3 per dose) of the peptides dissolved in normal saline for injection or in phosphate buffered saline. The intravenous dose was administered via tail vein with a slow push over 15-20 seconds. Doses were escalated based on tolerability.

| SMILES | MIC C. parapsilosis [1] [µg/mL] | MIC C. krusei [2] [µg/mL] | MIC C. albicans [3] [µg/mL] | MIC C. auris [4] [µg/mL] | MIC C. tropicalis [5] [µg/mL] | MIC C. glabrata [6] [µg/mL] | EC50 [7] [µg/mL] | Activity at 24 h MIC50 against Candida spp. [8] [µg/mL] | Activity at 24 h MIC90 against Candida spp. [8] [µg/mL] | Activity at 48 h MIC50 against Candida spp. [8] [µg/mL] | Activity at 48 h MIC90 against Candida spp. [8] [µg/mL] | MIC C. dubliniensis [9] [µg/mL] | MIC Range Fusarium spp. [11] [µg/mL] | MIC C. neoformans [14] [µg/mL] | MIC C. gattii [15] [µg/mL] | also measured |
| --- | --- | --- | --- | --- | --- | --- | --- | --- | --- | --- | --- | --- | --- | --- | --- | --- |
| N=C(N)NCCC[C@@H](N)C(=O)N[C@@H](CCCNC(=N)N)C(=O)N[C@H](CCCNC(=N)N)C(=O)N[C@@H](CCCNC(=N)N)C(=O)N[C@H](CCCNC(=N)N)C(=O)N[C@@H](CCCNC(=N)N)C(=O)N[C@H](CCCNC(=N)N)C(=O)N1CCC[C@H]1C(=O)N[C@H](CCCNC(=N)N)C(=O)N[C@@H](CCCNC(=N)N)C(=O)N[C@H](CCCNC(=N)N)C(=O)N[C@@H](CCCNC(=N)N)C(=O)N[C@H](CCCNC(=N)N)C(=O)N[C@@H](CCCNC(=N)N)C(=O)N[C@H](CCCNC(=N)N)C(N)=O [SEQ ID NO: 62, rRrRrRr-P-rRrRrRr-NH2] (H-[dR]R[dR]R[dR]R[dR]P[dR]R[dR]R[dR]R[dR]-NH2) | 0.25 (≈ 0.109 µM) | 0.5 (≈ 0.217 µM) | 0.25 (≈ 0.109 µM) | 2 (≈ 0.869 µM) | 0.25 (≈ 0.109 µM) | 0.5 (≈ 0.217 µM) | > 300 | 0.5 | 4 | 0.5 | 32 | 0.25 (≈ 0.109 µM) |  |  |  |  |
| N=C(N)NCCC[C@@H](N)C(=O)N[C@@H](CCCNC(=N)N)C(=O)N[C@H](CCCNC(=N)N)C(=O)NCCC(=O)N[C@H](CCCNC(=N)N)C(=O)N[C@@H](CCCNC(=N)N)C(=O)N[C@H](CCCNC(=N)N)C(=O)NCCC(=O)N[C@H](CCCNC(=N)N)C(=O)N[C@@H](CCCNC(=N)N)C(=O)N[C@H](CCCNC(=N)N)C(=O)N[C@@H](CCCNC(=N)N)C(=O)NCCC(=O)O [SEQ ID NO: 17, rRr-(Apr)-rRr-(Apr)-rRrR-(Apr)] (H-[dR]R[dR][βAla][dR]R[dR][βAla][dR]R[dR]R[βAla]-OH) | 2 (≈ 1.12 µM) | 1 (≈ 0.558 µM) | 4 (≈ 2.23 µM) | >64 | 4 (≈ 2.23 µM) | >64 | > 300 |  |  |  |  | 8 (≈ 4.46 µM) | 16 to 64 | 64 (≈ 35.7 µM) | 8 (≈ 4.46 µM) | MIC Pseudomonas aeruginosa [10]: >64 µg/mL; MIC Staphylococcus aureus [12]: >64 µg/mL; MIC Escherichia coli [13]: >64 µg/mL |
| N=C(N)NCCC[C@H](NC(=O)[C@@H](CCCNC(=N)N)NC(=O)[C@@H](N)CCCNC(=N)N)C(=O)N[C@H](CCCNC(=N)N)C(=O)N1CCC[C@H]1C(=O)N[C@H](CCCNC(=N)N)C(=O)N[C@@H](CCCNC(=N)N)C(=O)N[C@H](CCCNC(=N)N)C(=O)N1CCC[C@H]1C(=O)N[C@@H](CCCNC(=N)N)C(=O)N[C@H](CCCNC(=N)N)C(=O)N[C@@H](CCCNC(=N)N)C(=O)N1CCC[C@H]1C(=O)N[C@H](CCCNC(=N)N)C(=O)N[C@@H](CCCNC(=N)N)C(=O)N[C@H](CCCNC(=N)N)C(N)=O [SEQ ID NO: 65, RrRr-P-rRr-P-RrR-P-rRr-NH2] (H-R[dR]R[dR]P[dR]R[dR]PR[dR]RP[dR]R[dR]-NH2) | 0.25 (≈ 0.107 µM) | 0.5 (≈ 0.214 µM) | 0.25 (≈ 0.107 µM) | 0.5 (≈ 0.214 µM) | 0.5 (≈ 0.214 µM) | 0.5 (≈ 0.214 µM) | > 300 | 0.5 | 2 | 0.5 | 32 | 0.5 (≈ 0.214 µM) |  |  |  |  |
| N=C(N)NCCC[C@H](NC(=O)[C@@H](CCCNC(=N)N)NC(=O)[C@H](CCCNC(=N)N)NC(=O)[C@@H](CCCNC(=N)N)NC(=O)[C@@H]1CCCN1C(=O)[C@H](CCCNC(=N)N)NC(=O)[C@@H](CCCNC(=N)N)NC(=O)[C@H](CCCNC(=N)N)NC(=O)[C@@H](CCCNC(=N)N)NC(=O)[C@@H]1CCCN1C(=O)[C@H](CCCNC(=N)N)NC(=O)[C@@H](CCCNC(=N)N)NC(=O)[C@H](CCCNC(=N)N)NC(=O)[C@@H](CCCNC(=N)N)NC(=O)[C@@H]1CCCN1C(=O)[C@@H](CCCNC(=N)N)NC(=O)[C@H](CCCNC(=N)N)NC(=O)[C@@H](CCCNC(=N)N)NC(=O)[C@@H](N)CCCNC(=N)N)C(N)=O [SEQ ID NO: 64, RrRr-P-rRrR-P-rRrR-P-rRrR-NH2] (H-R[dR]R[dR]P[dR]R[dR]RP[dR]R[dR]RP[dR]R[dR]R-NH2) | 0.5 (≈ 0.178 µM) | 0.5 (≈ 0.178 µM) | 0.5 (≈ 0.178 µM) | 0.5 (≈ 0.178 µM) | 0.5 (≈ 0.178 µM) | 0.5 (≈ 0.178 µM) | > 300 | 0.5 | 1 | 0.5 | 2 | 0.5 (≈ 0.178 µM) |  |  |  |  |
| N=C(N)NCCC[C@@H](N)C(=O)N[C@H](CCCNC(=N)N)C(=O)N[C@H](CCCNC(=N)N)C(=O)NCCC(=O)N[C@H](CCCNC(=N)N)C(=O)N[C@H](CCCNC(=N)N)C(=O)N[C@H](CCCNC(=N)N)C(=O)NCCC(=O)N[C@H](CCCNC(=N)N)C(=O)N[C@H](CCCNC(=N)N)C(=O)N[C@H](CCCNC(=N)N)C(=O)N[C@H](CCCNC(=N)N)C(=O)NCCC(=O)N[C@H](CCCNC(=N)N)C(=O)N[C@H](CCCNC(=N)N)C(=O)N[C@H](CCCNC(=N)N)C(=O)N[C@H](CCCNC(=N)N)C(N)=O [SEQ ID NO: 14, rrr-(Apr)-rrr-(Apr)-rrrr-(Apr)-rrrr-NH2] (H-[dR][dR][dR][βAla][dR][dR][dR][βAla][dR][dR][dR][dR][βAla][dR][dR][dR][dR]-NH2) | 0.12 (≈ 0.0497 µM) | 0.5 (≈ 0.207 µM) | 1 (≈ 0.414 µM) | 0.5 (≈ 0.207 µM) | 0.25 (≈ 0.103 µM) | 0.5 (≈ 0.207 µM) | > 300 |  |  |  |  | 0.5 (≈ 0.207 µM) | 0.12 to 0.25 | 0.5 (≈ 0.207 µM) | 0.25 (≈ 0.103 µM) | MIC Range Scedosporium spp. [16]: 0.25 µg/mL (≈ 0.103 µM); MTD ([17]; single IP dose, read-out: Tolerated single intraperitoneal dose): 10 to 15 mg/kg; MTD ([17]; single IV dose via tail vein, read-out: Tolerated single intravenous dose): 5 to 7.5 mg/kg; MIC50 Candida species [8]: 0.5 µg/mL (≈ 0.207 µM); MIC90 Candida species [8]: 2 µg/mL (≈ 0.828 µM) |
| N=C(N)NCCC[C@H](NC(=O)[C@@H](CCCNC(=N)N)NC(=O)[C@H](CCCNC(=N)N)NC(=O)[C@@H](CCCNC(=N)N)NC(=O)[C@@H]1CCCN1C(=O)[C@H](CCCNC(=N)N)NC(=O)[C@@H](CCCNC(=N)N)NC(=O)[C@H](CCCNC(=N)N)NC(=O)[C@@H](CCCNC(=N)N)NC(=O)[C@@H]1CCCN1C(=O)[C@@H](CCCNC(=N)N)NC(=O)[C@H](CCCNC(=N)N)NC(=O)[C@@H](CCCNC(=N)N)NC(=O)[C@@H]1CCCN1C(=O)[C@@H](CCCNC(=N)N)NC(=O)[C@H](CCCNC(=N)N)NC(=O)[C@@H](CCCNC(=N)N)NC(=O)[C@@H](N)CCCNC(=N)N)C(N)=O [SEQ ID NO: 63, RrRr-P-rRr-P-rRrR-P-rRrR-NH2] (H-R[dR]R[dR]P[dR]R[dR]P[dR]R[dR]RP[dR]R[dR]R-NH2) | 0.5 (≈ 0.189 µM) | 0.5 (≈ 0.189 µM) | 0.5 (≈ 0.189 µM) | 0.5 (≈ 0.189 µM) | 0.5 (≈ 0.189 µM) | 0.5 (≈ 0.189 µM) | > 300 | 0.5 | 1 | 1 | 2 | 0.5 (≈ 0.189 µM) |  |  |  |  |
